Test results from ChEMBL document CHEMBL5465560, “Selectivity Literature for EUbOPEN Chemogenomic Library” (2024).

How the values were obtained:
[1] = biological target: Serine/threonine-protein kinase mTOR (Homo sapiens, UniProt P42345); test: Selectivity interaction (KinomeScan (DiscoverX)) EUB0000229b MTOR; settings: at 10 µM
[2] = biological target: Cyclin-dependent kinase 11B (Homo sapiens) (UniProt P21127); test: Selectivity interaction (KinomeScan (DiscoverX)) EUB0000229b CDK11B; settings: at 10 µM
[3] = biological target: T1, Dual specificity mitogen-activated protein kinase kinase 3 (Homo sapiens) (UniProt P46734); test: Selectivity interaction (KinomeScan (DiscoverX)) EUB0000229b MAP2K3; settings: at 10 µM
T1 sequence (whole entry): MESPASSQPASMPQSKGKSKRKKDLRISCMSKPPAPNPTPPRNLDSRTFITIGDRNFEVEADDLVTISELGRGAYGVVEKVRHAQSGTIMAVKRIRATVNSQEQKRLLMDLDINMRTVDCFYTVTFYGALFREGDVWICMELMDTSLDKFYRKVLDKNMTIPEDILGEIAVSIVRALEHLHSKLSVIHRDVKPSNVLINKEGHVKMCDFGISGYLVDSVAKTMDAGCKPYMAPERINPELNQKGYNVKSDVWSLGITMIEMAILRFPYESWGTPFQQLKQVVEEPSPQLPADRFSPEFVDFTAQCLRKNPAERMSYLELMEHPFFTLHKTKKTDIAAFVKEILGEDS

[4] = biological target: Mitogen-activated protein kinase 9 (Homo sapiens, UniProt P45984); test: Selectivity interaction (Kinase panel (DSF assay)) EUB0001559a MAPK9
[5] = biological target: Protein kinase C beta type (Homo sapiens, UniProt P05771); test: Selectivity interaction (Kinase screening (Upstate/Millipore)) EUB0000604a PRKCB
[6] = biological target: T2, Dual specificity tyrosine-phosphorylation-regulated kinase 2 (Homo sapiens) (UniProt Q92630); test: Selectivity interaction (KinomeScan (DiscoverX)) EUB0000045b DYRK2
T2 sequence (whole entry): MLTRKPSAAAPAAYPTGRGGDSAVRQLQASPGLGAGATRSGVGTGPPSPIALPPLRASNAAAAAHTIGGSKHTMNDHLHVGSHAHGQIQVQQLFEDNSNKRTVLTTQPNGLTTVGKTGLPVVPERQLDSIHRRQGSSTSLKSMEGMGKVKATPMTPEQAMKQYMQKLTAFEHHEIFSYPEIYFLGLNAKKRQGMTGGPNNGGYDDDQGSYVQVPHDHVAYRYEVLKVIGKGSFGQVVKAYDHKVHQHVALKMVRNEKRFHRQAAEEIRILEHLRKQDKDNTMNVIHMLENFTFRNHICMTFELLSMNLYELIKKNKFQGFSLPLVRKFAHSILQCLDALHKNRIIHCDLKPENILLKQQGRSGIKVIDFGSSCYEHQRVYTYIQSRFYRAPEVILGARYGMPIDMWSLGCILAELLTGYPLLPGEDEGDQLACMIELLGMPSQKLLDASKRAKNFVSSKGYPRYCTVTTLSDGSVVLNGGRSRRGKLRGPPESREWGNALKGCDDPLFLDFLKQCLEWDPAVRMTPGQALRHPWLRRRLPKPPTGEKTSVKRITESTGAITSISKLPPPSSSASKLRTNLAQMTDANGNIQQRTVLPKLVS

[7] = biological target: Mitogen-activated protein kinase kinase kinase kinase 1 (Homo sapiens) (UniProt Q92918); settings: at 10 µM
[8] = biological target: Vascular endothelial growth factor receptor 3 (Homo sapiens, UniProt P35916); test: Selectivity interaction (KinomeScan (DiscoverX)) EUB0001619a FLT4; settings: at 1 µM
[9] = biological target: T3, Alpha-2C adrenergic receptor (Homo sapiens) (UniProt P18825); test: Selectivity interaction (Panel of kinases, GPCRs, ion channels and transporters (enzymatic assay)) EUB0000223bCl ADRA2C
T3 sequence (whole entry): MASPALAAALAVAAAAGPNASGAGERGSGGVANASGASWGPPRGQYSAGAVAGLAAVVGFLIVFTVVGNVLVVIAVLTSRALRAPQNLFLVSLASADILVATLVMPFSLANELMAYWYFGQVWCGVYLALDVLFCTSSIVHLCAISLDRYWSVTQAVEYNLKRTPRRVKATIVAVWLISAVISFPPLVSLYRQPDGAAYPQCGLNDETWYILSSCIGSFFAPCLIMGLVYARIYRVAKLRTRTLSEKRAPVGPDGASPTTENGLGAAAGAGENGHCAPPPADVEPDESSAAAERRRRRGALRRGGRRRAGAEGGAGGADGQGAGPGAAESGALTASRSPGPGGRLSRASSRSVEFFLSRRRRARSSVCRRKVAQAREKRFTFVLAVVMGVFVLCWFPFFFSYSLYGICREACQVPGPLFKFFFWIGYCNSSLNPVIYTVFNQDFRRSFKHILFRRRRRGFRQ

Chain of Protein kinase C beta type (P05771 2-671 limits assumed): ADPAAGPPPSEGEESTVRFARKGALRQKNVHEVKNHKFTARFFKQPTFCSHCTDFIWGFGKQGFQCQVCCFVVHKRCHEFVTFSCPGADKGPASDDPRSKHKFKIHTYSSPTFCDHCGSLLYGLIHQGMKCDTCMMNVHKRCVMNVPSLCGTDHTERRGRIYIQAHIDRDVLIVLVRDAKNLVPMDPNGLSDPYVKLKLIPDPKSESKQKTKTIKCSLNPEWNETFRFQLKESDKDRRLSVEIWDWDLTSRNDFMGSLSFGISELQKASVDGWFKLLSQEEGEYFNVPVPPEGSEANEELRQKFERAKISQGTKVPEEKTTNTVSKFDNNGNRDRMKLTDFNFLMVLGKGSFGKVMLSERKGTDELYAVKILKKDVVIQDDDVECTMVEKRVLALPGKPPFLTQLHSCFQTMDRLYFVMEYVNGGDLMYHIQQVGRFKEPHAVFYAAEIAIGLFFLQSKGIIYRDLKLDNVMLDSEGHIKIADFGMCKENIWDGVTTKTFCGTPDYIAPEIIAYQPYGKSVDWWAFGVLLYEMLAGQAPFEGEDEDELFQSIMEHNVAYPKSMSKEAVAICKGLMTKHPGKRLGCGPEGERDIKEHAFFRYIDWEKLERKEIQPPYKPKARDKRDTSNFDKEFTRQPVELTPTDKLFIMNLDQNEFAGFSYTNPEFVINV
Chain of Vascular endothelial growth factor receptor 3 (P35916 whole entry): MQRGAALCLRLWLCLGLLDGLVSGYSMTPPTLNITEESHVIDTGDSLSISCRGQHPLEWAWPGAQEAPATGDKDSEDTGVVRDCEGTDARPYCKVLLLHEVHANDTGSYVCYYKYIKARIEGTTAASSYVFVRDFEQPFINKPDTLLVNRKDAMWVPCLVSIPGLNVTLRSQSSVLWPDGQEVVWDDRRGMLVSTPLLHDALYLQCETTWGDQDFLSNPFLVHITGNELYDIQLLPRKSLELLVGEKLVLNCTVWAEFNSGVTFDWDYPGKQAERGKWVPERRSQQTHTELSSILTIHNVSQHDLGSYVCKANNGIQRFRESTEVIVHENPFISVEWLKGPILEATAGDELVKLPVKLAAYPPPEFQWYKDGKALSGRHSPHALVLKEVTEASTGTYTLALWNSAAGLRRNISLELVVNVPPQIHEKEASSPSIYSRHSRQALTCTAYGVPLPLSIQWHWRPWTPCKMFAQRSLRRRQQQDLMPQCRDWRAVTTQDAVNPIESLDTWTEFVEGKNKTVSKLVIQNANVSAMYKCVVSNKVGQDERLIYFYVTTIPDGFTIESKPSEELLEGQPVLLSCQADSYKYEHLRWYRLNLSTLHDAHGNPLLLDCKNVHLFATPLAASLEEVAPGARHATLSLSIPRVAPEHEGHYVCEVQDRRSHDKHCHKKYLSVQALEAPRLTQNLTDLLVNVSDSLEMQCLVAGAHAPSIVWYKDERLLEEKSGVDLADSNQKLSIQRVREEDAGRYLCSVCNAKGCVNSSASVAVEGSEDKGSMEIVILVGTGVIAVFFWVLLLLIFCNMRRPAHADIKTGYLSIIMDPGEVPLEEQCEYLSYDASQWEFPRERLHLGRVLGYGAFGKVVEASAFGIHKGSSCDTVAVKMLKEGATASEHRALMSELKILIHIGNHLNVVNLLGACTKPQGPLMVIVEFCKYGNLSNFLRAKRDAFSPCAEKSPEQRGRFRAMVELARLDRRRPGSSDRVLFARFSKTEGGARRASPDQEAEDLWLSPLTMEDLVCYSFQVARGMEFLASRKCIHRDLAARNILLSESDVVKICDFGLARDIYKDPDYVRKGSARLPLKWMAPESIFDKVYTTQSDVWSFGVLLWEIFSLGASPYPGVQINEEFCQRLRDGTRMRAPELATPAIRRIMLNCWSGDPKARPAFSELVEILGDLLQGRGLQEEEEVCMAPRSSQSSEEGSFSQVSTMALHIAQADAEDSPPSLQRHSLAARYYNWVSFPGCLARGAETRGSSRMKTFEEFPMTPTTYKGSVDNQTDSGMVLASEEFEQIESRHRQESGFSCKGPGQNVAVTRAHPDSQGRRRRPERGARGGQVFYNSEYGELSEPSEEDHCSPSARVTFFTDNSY
Chain of Mitogen-activated protein kinase kinase kinase kinase 1 (Homo sapiens) (Q92918 whole entry, looked up): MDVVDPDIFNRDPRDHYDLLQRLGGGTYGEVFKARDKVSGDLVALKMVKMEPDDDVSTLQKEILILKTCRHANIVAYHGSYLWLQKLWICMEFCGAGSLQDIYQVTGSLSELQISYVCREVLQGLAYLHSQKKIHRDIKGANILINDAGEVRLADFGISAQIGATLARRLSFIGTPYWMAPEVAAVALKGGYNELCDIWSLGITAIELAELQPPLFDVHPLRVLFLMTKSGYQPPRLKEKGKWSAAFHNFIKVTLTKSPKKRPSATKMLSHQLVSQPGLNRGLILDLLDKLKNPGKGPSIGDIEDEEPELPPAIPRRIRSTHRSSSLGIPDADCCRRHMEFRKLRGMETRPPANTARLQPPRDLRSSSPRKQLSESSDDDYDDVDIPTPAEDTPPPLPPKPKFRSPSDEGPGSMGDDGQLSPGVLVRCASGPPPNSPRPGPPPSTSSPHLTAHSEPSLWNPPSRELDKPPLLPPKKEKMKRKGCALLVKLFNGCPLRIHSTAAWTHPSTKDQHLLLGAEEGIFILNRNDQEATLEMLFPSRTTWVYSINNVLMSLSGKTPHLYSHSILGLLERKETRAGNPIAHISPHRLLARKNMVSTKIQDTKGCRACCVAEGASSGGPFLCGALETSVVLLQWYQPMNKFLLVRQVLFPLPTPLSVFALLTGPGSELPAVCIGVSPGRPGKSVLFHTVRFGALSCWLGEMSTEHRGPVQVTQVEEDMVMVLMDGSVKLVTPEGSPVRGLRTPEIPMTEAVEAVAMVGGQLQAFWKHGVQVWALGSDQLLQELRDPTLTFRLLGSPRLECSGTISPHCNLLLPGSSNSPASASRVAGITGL
Chain of Mitogen-activated protein kinase 9 (P45984 whole entry, looked up): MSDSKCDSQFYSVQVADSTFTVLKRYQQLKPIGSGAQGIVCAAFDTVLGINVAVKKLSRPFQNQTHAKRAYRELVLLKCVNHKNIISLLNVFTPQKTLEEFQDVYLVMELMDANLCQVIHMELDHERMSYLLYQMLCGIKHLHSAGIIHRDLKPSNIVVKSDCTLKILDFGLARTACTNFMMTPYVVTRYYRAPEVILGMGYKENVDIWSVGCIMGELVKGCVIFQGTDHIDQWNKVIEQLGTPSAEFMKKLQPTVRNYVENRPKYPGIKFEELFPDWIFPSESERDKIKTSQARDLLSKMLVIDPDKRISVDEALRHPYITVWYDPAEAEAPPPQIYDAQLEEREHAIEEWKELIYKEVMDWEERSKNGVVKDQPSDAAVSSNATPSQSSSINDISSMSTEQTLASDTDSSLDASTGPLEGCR
Chain of Cyclin-dependent kinase 11B (Homo sapiens) (P21127 whole entry): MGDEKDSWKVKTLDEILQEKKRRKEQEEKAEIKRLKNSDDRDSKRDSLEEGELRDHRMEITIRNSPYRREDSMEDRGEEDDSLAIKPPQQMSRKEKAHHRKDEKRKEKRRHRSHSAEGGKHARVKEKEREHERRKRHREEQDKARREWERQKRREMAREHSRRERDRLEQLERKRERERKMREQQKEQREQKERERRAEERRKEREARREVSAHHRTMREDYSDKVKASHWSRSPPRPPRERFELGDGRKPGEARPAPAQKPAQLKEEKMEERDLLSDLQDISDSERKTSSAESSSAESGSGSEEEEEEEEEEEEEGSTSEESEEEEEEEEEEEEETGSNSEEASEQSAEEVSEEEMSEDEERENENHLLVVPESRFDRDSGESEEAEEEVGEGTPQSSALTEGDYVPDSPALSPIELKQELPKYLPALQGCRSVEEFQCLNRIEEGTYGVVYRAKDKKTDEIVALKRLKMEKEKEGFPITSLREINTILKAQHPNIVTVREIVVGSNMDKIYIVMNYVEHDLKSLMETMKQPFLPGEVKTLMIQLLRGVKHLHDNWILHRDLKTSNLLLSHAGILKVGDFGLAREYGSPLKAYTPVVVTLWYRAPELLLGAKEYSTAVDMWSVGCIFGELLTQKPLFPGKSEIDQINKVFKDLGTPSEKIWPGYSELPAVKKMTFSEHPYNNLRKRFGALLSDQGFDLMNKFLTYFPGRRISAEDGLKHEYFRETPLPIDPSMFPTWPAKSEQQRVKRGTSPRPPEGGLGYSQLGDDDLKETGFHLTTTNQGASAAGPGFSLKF

Work on `COc1cc(N(C)c2ccnc3ccc(C(F)(F)F)cc23)cc(OC)c1OC` yielded a % binding [1] of 94%, a % binding [2] of 85% and a % binding [3] of 72%.
Work on `CN(C(=O)c1cnn2cccnc12)c1cc2c(cc1N1CCOCC1)C(=O)N(C[C@@H](F)C(C)(C)O)C2` yielded a dTM [4] of 0.5 K.
`Cc1cnc(Nc2ccc(F)cc2Cl)nc1-c1c[nH]c(C(=O)N[C@H](CO)c2cccc(Cl)c2)c1` gave a % of inhibition [5] of 4%.
For `C=CC(=O)Nc1cc(-n2c(=O)ccc3cnc4ccc(-c5ccc(NS(C)(=O)=O)cc5)cc4c32)ccc1C`, the % of control ([6]; at 1 µM) was 100% and the % of control ([6]; at 10 µM) was 91%.
`Cc1cc([C@@H](C)Nc2ccccc2C(=O)O)c2nc(N3CCOCC3)cc(=O)n2c1` [AZD-6482] gave a % of control [7] of 100%.
`N#Cc1cccc(-c2c[nH]c3ncnc(N4CCOCC4)c23)c1` showed a % of control [8] of 100%.
`COc1cc(C(=O)N2CC[C@@H](O)[C@@H](N)C2)cc2nc(-c3cc4ccccc4n3CC3CC3)n(C)c12` was tested, and the pXC50 [9] was under 4.5 M.
